This passage reports inhibition in vivo, melting point and activity results from US20030191323A1, “Hypoglycemic agent” (Ajinomoto Co., Inc., priority 2000, published 2003).

Data set [1] concerns non-insulin-dependent diabetes model mice (KK mice). Description: Hypoglycemic effect on non-insulin-dependent diabetes model mice (KK mice). The data set is classed as in vivo. The following applies: Mus musculus, 168 h; 30 mg/kg twice a day for one week, KK mice 8 weeks old; fasted overnight; calculated on the basis of blood glucose level (100) in the control group. As for the experimental part:
Hypoglycemic Effect on Non-Insulin-Dependent Diabetes Model Mice (KK Mice)
Method: A compound (30 mg/kg) was administered to non-insulin-dependent diabetes model mice (8 weeks old) twice a day for one week. After final administration, the mice were fasted overnight and then the blood glucose concentration of each mouse was determined. The hypoglycemic effect of the compound was calculated on the basis of the blood glucose level (100) in the control group.

The subject of data set [2] is Rat skeletal muscle cell strain L6 cells. The experiment in a line: Effect of accelerating the glucose uptake in cultured skeletal muscle cells ([3H]-2-deoxyglucose uptake). It counts as cell-based. The following applies: 10 min, 10 μM compound, cultured overnight, 2DG uptake in L6 myotubes, 37° C. 10 minutes, compared with the control group. As for the experimental part: Effect of accelerating the glucose uptake in cultured skeletal muscle cells: Method: Rat skeletal muscle cell strain “L6 cells” in a confluent state was cultured in DME medium containing 2% of fetal calf serum for one week to differentiate into myotubes. The medium was replaced with the DME medium containing a compound synthesized in each of the above Reference Examples. After culturing overnight followed by the thorough washing with HEPES buffer solution, an HEPES buffer solution containing 37 kBq/ml of 10 μM [3H]-2-deoxyglucose (2DG) was added thereto. After the culture at 37° C. for 10 minutes, the radioactivity of 2DG transmigrated into the cells was determined. The effect (%) of each compound on 2DG uptake was determined as compared with that in the control group.

Broadly, the inhibition in vivo is the drop in the measured response relative to a control, in per cent. What is called melting point is the temperature of the solid-liquid transition.

Molecules are shown by their SMILES.

For `CCCOCC(=O)NS(=O)(=O)c1ccccc1NC(=O)c1ccc(C#Cc2cccc(C(F)(F)F)c2)cc1` [compound 62, 4-(3-Trifluoromethyl)phenylethynyl-N-(2-(2-propyloxyacetylamino)sulfonylphenyl)benzamide], the melting point fell in the range of 175 to 177 °C. The inhibition in vivo at 30 mg/kg in data set [1] was 60.9%.

Compound `CCCCCC(=O)NS(=O)(=O)c1ccccc1NC(=O)c1ccc(C#Cc2cccc(C(F)(F)F)c2)cc1` [compound 60, 4-(3-Trifluoromethyl)phenylethynyl-N-(2-hexanoylaminosulfonylphenyl)benzamide] displayed a melting point of 194 to 196 °C. Besides, the inhibition in vivo at 30 mg/kg in data set [1] was 51.1%. Further, in data set [2], the activity at 10 µM turned out to be 246%.

`CCCCCC(=O)NS(=O)(=O)c1ccccc1NC(=O)c1ccc(C#Cc2ccc(OC(F)(F)F)cc2)cc1` [compound 66, 4-(4-Trifluoromethoxyl)phenylethynyl-N-(2-hexanoylaminosulfonylphenyl)benzamide]: the melting point fell in the range of 197 to 199 °C. Besides, the inhibition in vivo at 30 mg/kg in data set [1] is 28.2%. The activity at 10 µM in data set [2] was 94%.

The compound `CC(=O)CCCC(=O)NS(=O)(=O)c1ccccc1NC(=O)c1ccc(C#Cc2cccc(C(F)(F)F)c2)cc1` [compound 61, 4-(3-Trifluoromethyl)phenylethynyl-N-(2-(5-ketohexanoylamino)sulfonylphenyl)benzamide] displayed a melting point of 169 to 171 °C. Further, the inhibition in vivo at 30 mg/kg in data set [1] is 65.7%.

Turning to `CCCCCC(=O)NS(=O)(=O)c1ccccc1NC(=O)c1ccc(C#Cc2cccc(F)c2)cc1` [compound 72, 4-(3-Fluoro)phenylethynyl-N-(2-hexanoylaminosulfonylphenyl)benzamide], the melting point fell in the range of 183 to 186 °C. Also, in data set [1], the inhibition in vivo at 30 mg/kg was 9.2%. Further, the activity at 10 µM in data set [2] is 279%.

Take `CC(=O)CCCC(=O)NS(=O)(=O)c1ccccc1NC(=O)c1ccc(C#Cc2ccc(F)cc2)cc1` [compound 70, 4-(4-Fluoro)phenylethynyl-N-(2-(5-ketohexanoylamino)sulfonylphenyl)benzamide]: the melting point is 179 to 181 °C. The inhibition in vivo at 30 mg/kg in data set [1] is 30.5%.

On to `CCCCCC(=O)NS(=O)(=O)c1ccccc1NC(=O)c1ccc(C#Cc2ccc(C(F)(F)F)cc2)cc1` [compound 64, 4-(4-Trifluoromethyl)phenylethynyl-N-(2-hexanoylaminosulfonylphenyl)benzamide], for which the melting point was 210 to 212 °C. In data set [1], the inhibition in vivo at 30 mg/kg was 34.5%. The activity at 10 µM in data set [2] came to 204%.

With `CCCSCC(=O)NS(=O)(=O)c1ccccc1NC(=O)c1ccc(C#Cc2ccccc2)cc1` [compound 58, 4-Phenylethynyl-N-(2-(2-propylthioacetylamino)sulfonylphenyl]benzamide], the melting point lay in the range of 186 to 188 °C. The inhibition in vivo at 30 mg/kg in data set [1] was 22.7%.

`CCCCCC(=O)NS(=O)(=O)c1ccccc1NC(=O)c1ccc(C#Cc2ccccc2)cc1` [compound 49, N-[2-(4-Phenylethynylbenzamido)benzenesulfonyl]hexanamide] returned a melting point of 175 to 176 °C. The inhibition in vivo at 30 mg/kg in data set [1] is 10.3%. Further, the activity at 10 µM in data set [2] is 212%.

On to `CCCCCC(=O)NS(=O)(=O)c1ccccc1NC(=O)c1ccc(C#Cc2ccc(F)cc2)cc1` [compound 69, 4-(4-Fluoro)phenylethynyl-N-(2-hexanoylaminosulfonylphenyl)benzamide], for which the melting point lay in the range of 183 to 186 °C. Moreover, in data set [1], the inhibition in vivo at 30 mg/kg was 27.7%. Further, the activity at 10 µM in data set [2] amounted to 240%.

On to `CC(=O)CCCC(=O)NS(=O)(=O)c1ccccc1NC(=O)c1ccc(C#Cc2ccc(OC(F)(F)F)cc2)cc1` [compound 67, 4-(4-Trifluoromethoxyl)phenylethynyl-N-(2-(5-ketohexanoylamino)sulfonylphenyl)benzamide], for which the melting point was in the range of 204 to 205 °C. The inhibition in vivo at 30 mg/kg in data set [1] is 40.2%.

Compound `CCCCCC(=O)NS(=O)(=O)c1ccccc1NC(=O)c1cccc(OCc2ccc(C(F)(F)F)cc2)c1` [compound 41, N-[2-[3-(4-Trifluoromethylbenzyloxy)benzamido]benzenesulfonyl]hexanamide] showed a melting point of 142 to 143 °C. Moreover, the activity at 10 µM in data set [2] came to 230%.
